Measurements from patent US5278326A, “Substituted beta-ketoamide ACAT inhibitors” (Warner-Lambert Company, priority 1991, dated 1994).

Molecular target: T1, acyl-CoA: cholesterol acyltransferase (ACAT) (Oryctolagus cuniculus, UniProt G1SFD9)
T1 construct: in a tissue preparation containing rabbit intestinal microsomes; from tissue; host or cells: rabbit intestinal microsomes
T1 sequence (G1SFD9 1-524): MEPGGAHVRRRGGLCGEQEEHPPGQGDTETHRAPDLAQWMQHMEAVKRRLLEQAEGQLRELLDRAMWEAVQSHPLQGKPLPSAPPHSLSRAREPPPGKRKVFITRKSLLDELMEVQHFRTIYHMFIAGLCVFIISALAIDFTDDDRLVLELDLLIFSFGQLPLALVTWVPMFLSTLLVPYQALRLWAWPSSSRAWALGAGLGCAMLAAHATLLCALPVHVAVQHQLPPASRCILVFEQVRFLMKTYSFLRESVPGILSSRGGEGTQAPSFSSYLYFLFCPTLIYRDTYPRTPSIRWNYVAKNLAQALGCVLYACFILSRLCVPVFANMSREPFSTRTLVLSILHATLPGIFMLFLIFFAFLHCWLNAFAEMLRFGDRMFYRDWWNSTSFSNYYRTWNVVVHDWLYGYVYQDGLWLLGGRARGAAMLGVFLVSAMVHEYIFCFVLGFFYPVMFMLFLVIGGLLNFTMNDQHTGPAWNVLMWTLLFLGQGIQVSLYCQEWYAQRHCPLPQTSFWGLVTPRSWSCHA
Assay: in vitro inhibition of ACAT (radiolabeled cholesterol oleate formed from radiolabeled oleic acid, rabbit intestinal microsomes)
Format: biochemical
Settings: tissue preparation containing rabbit intestinal microsomes, read-out: IC50 (concentration of test compound required to inhibit the activity of the enzyme by 50%)
Description: The ability of representative compounds of the present invention to inhibit ACAT was measured using an in vitro test more fully described in F. J. Field and R. G. Salone, Biochemica et Biophysica 712:557-570 (1982). The test assesses the ability of a test compound to inhibit the acylation of cholesterol by oleic acid by measuring the amount of radiolabeled cholesterol oleate formed from radiolabeled oleic acid in a tissue preparation containing rabbit intestinal microsomes.
The data appear in Table 1 where they are expressed as IC50 values; i.e., the concentration of test compound required to inhibit the activity of the enzyme by 50%.

IC50	SMILES
> 1000 nM	CCCCCCCCNC(=O)CC(=O)c1c2ccccc2cc2ccccc12 [Example 13, N-octyl-β-oxo-9-anthracenepropanamide]
57 nM	CC(C)c1cccc(C(C)C)c1NC(=O)CC(=O)CCCCCCCCCCCOC1CCCCO1 (centres unmarked) [Example 6, N-[2,6-bis(1-methylethyl)phenyl]-3-oxo-14-[(tetrahydro-2H-pyran-2-yl)oxy]-tetradecanamide]
> 1000 nM	CCCCCCCCNC(=O)CC(=O)c1ccc(F)cc1F [Example 12, 2,4-difluoro-N-octyl-β-oxo-benzenepropanamide]
230 nM	CC(C)c1cccc(C(C)C)c1NC(=O)CC(=O)CCCCCCCCCCCO [Example 7, N-[2,6-bis(1-methylethyl)phenyl]-14-hydroxy-3-oxo-tetradecanamide]
> 1000 nM	CCCCCCCCCCCC(=O)C(C)(C)C(=O)N(C)c1c(OC)cc(OC)cc1OC [Example 10, N,2,2-trimethyl-3-oxo-N-(2,4,6-trimethoxyphenyl)-tetradecanamide]
